“Also recorded” adds a separate entry of the source. No end group written: not given here.
Tests used:
Type in all cases: cell-based
Fusarium graminearum = system: Fusarium graminearum
Sclerotinia sclerotiorum = system: Sclerotinia sclerotiorum
Sclerotinia trifoliorum = system: Sclerotinia trifoliorum
Fusarium moniliforme = system: Fusarium moniliforme
Aspergillus flavus = system: Aspergillus flavus
Alternaria longipes = system: Alternaria longipes
plant pathogenic fungi = system: plant pathogenic fungi

Sequence: RSGRGECRRQCLRRHEGQPWETQECMRRCRRRGG (cysteine pairing not given here) [CMIII]
- inhibition of Fusarium graminearum (Fusarium graminearum; at a concentration of 112 μg/mL): inhibitory activity
- concentration down to which Fusarium graminearum was noticeably inhibited (Fusarium graminearum; other studies): 3.8 µM
- concentrations at which inhibition of S. sclerotiorum was not observed (Sclerotinia sclerotiorum): below 30.4 micromolar
- inhibition of Sclerotinia isolates (S. sclerotiorum) (Sclerotinia sclerotiorum): inhibited strongly
- inhibition of Sclerotinia sclerotiorum (Sclerotinia sclerotiorum): inhibitory activity
- concentrations at which inhibition of S. trifoliorum was not observed (Sclerotinia trifoliorum): below 15.2 micromolar
- inhibition of Sclerotinia isolates (S. trifoliorum) (Sclerotinia trifoliorum): inhibited strongly
- inhibition of Sclerotinia trifoliorum (Sclerotinia trifoliorum): inhibitory activity
- concentration down to which Fusarium moniliforme was noticeably inhibited (Fusarium moniliforme): 3.8 µM
- inhibition of Fusarium moniliforme (Fusarium moniliforme): slightly inhibited; also recorded: not completely inhibited
- inhibition of Aspergillus flavus (Aspergillus flavus): slightly inhibited; also recorded: slight inhibition
- effect on A. longipes (Alternaria longipes; at 3 μM, yet another study): not affected
- concentration showing noticeable inhibition of Alternaria longipes (Alternaria longipes; other studies, most sensitive of the fungi): 1.9 µM
- CMIII activity in the presence of plant cell extracts (plant pathogenic fungi): reduced substantially

Source: patent publication US5905187A (priority 1997, dated 1999)
